Key:
[1] = tested on: 12 systems of human primary cells; test: BioMAP Diversity PLUS phenotypic screen; assay type: cell-based; settings: 3.3 μM; for Immune modulation, cell surface and tissue remodeling biomarkers: changes at least 1.5-fold from vehicle control
Protocol: Compounds of the invention were assayed for their effects on 148 biomarkers of inflammation, immune modulation and tissue remodeling in the BioMAP® Diversity PLUS® (DiscoverX) platform designed to model aspects of human diseases in vitro (Kunkel 2004, Berg 2006, Melton 2013).
The example compounds (3.3 μM) in Table 8 induced increases or decreases in the levels of the indicated 20 biomarkers, which are at least 1.5-fold change from vehicle control and are outside the significance prediction envelop. All compounds presented in Table 8 were not cytotoxic at the concentration tested.

CB1 receptor [2] = target: T1, CB1 receptor (Homo sapiens, UniProt P21554); test: cAMP Assay #2: Hit Hunter cAMP assay, Gi-coupled agonist activity, CB1; assay type: cell-based; set-up: host or cells: PathHunter cell lines
T1 sequence (P21554 whole entry): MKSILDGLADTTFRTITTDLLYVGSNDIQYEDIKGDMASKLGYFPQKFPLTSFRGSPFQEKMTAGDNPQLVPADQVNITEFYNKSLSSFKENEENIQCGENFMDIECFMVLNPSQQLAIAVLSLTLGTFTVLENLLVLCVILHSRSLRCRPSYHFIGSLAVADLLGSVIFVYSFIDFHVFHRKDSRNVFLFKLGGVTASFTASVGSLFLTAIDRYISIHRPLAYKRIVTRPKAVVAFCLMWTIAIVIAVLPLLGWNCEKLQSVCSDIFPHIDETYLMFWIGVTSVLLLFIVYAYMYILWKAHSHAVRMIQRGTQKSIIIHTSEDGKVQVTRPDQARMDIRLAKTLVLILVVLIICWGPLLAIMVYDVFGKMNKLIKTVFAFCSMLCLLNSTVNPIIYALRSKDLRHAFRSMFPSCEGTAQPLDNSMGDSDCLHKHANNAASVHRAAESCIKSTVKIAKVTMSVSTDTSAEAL

CB1 receptor [3] = target: T1, CB1 receptor; test: cell-based; set-up: host or cells: PathHunter cell lines
CB2 receptor [4] = target: T2, CB2 receptor (Homo sapiens, UniProt P34972); test: cAMP Assay #2: Hit Hunter cAMP assay, Gi-coupled agonist activity, CB2; assay type: cell-based; set-up: host or cells: cAMP Hunter cell lines; settings: for CB2 fold selectivity: Hit Hunter cAMP, CB1 EC50 / CB2 EC50
T2 sequence (P34972 whole entry): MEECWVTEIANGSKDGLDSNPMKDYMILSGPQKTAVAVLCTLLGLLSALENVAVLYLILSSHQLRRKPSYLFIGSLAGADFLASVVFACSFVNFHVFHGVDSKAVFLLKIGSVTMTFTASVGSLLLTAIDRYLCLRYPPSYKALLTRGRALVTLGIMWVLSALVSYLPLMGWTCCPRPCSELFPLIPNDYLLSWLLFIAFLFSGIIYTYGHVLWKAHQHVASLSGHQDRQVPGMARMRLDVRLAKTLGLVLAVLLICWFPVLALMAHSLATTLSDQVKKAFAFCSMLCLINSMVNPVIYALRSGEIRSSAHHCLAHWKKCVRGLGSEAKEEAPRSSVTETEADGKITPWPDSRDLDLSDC

CB2 receptor [5] = target: T2, CB2 receptor; test: cell-based; set-up: host or cells: cAMP Hunter cell lines
Outline: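 PathHunter β-Arrestin enzyme fragment complementation cells, EA-tagged β-Arrestin and PK-tagged receptor, exposed to compound for 90 to 180 minutes at 37° C. or room temperature, 1% vehicle. Chemiluminescence read 1 h after detection reagent; agonist % activity relative to vehicle and MAX control ligand.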

CB1 receptor [6] = target: T1, CB1 receptor; test: cAMP Assay #1: CB1 adenylylcyclase assay in CHO cells; assay type: cell-based; set-up: expressed in transfected cells; host or cells: CHO cells
Protocol: (§1) Compounds of the invention were assayed in an adenylylcyclase assay to determine agonist activity on the CB1 and CB2 receptors, the results of which are provided in Table 4. Exemplary methods for the adenylylcyclase assay can be found in the literature, for example, in Rhee, M-H., et al. Cannabinol Derivatives: Binding to Cannabinoid Receptors and Inhibition of Adenylylcyclase. J Med Chem. 40: 3228-3233 (1997).
CB1 Activity as determined by Adenylylcyclase Assay: CB1 receptor agonist activity was measured by measuring cAMP production. A compound of the invention was incubated with CHO cells expressing human recombinant CB1 for 20 minutes at 37° C.
(§2) Determination of EC50 values: The EC50 values (concentration producing a half-maximal response) were determined by non-linear regression analysis of the concentration-response curves generated with mean replicate values using Hill equation curve fitting: Y=D+[(A−D)/(1+(C/C50)^nH)], where Y=response, A=left asymptote of the curve, D=right asymptote of the curve, C=compound concentration, and C50=EC50, and nH=slope factor. This analysis was performed using software developed at Cerep (Hill software) and validated by comparison with data generated by the commercial software SigmaPlot® 4.0 for Windows® (© 1997 by SPSS Inc.).

CB2 receptor [7] = target: T2, CB2 receptor; test: cAMP Assay #1: CB2 adenylylcyclase assay in CHO cells; assay type: cell-based; set-up: expressed in transfected cells; host or cells: CHO cells
Protocol: as §1
CB2 Activity as determined by Adenylylcyclase Assay: CB2 receptor agonist activity was measured by measuring cAMP production. A compound of the invention was incubated with CHO cells expressing human recombinant CB2 for 10 minutes at 37° C.
as §2

CB1 receptor [8] = target: T1, CB1 receptor; test: CB1 competitive radioligand binding assay ([3H] SR141716A); set-up: expressed in transfected cells; host or cells: Chem-1 cells
Outline: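 Chem-1 cells expressing human recombinant CB1 incubated 90 min at 37° C with 2.0 nM [3H]SR141716A and compound at 0.5 μM (1% DMSO) in HEPES pH 7.4 buffer with MgCl2, CaCl2, 0.2% BSA. Read-out is % inhibition of radioligand binding.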

CB2 receptor [9] = target: T2, CB2 receptor; test: CB2 competitive radioligand binding assay ([3H] WIN-55,212-2); set-up: expressed in transfected cells; host or cells: CHO-K1 cells; settings: for Fold Selectivity (CB1/CB2): Table 3, ratio of Ki CB1/CB2
Outline: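 Single-concentration displacement: 2.4 nM [3H]WIN-55,212-2 competed with 0.05 μM compound (1% DMSO) for 90 min at 37 °C on human CB2 expressed in CHO-K1 cells (HEPES 20 mM, pH 7.0, 0.5% BSA). Result given as % inhibition of bound radioligand.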

LPS-induced PBMCs = test: Inflammatory cytokine release from LPS-induced PBMCs (Luminex); assay type: cell-based, human; settings: fold change from LPS-treated PBMCs, compounds 10 μM (DEX 1 μg/ml) 2 h, then LPS 0.1 μg/ml 24 h, negative = reduced
Protocol: Compounds of the invention were assayed for their effect on inflammatory cytokine release from lipopolysaccharides (LPS)-induced PBMCs, isolated from a human blood sample, the results of which are provided in Table 7 as fold change. Exemplary methods for quantifying secretion of inflammatory cytokines in PBMCs are known in the art, for example, as described in Hailer et al., Infection and Immunity. 68(2):752-759 (2000); and Merlini et al., Frontiers in Immunology. 7:614 (2016); each of which is incorporated herein by reference with respect to methods for evaluating cytokine release in PBMCs.
In brief, human blood samples from healthy volunteers were collected and PBMCs were isolated. PBMCs were cultured and each compound was assayed in triplicate at a final concentration of 10 μM for 2 hours. 1 μg/ml dexamethasone (DEX) served as a positive control. LPS was added at a final concentration of 0.1 μg/ml and further incubated for 24 hours. At the end of the incubation, the supernatants were collected and the levels of a panel of secreted cytokines were measured by a Human Magnetic Luminex® assay (R&D). The results in Table 7 are presented as a fold change from LPS-treated PBMCs. Reduced levels are expressed by negative values. OOR denotes values that are out of the standard curve range for the specific cytokine and thus, could not be accurately measured. Cytotoxicity was also determined. Compounds with cytotoxicity ≥50% was considered cytotoxic. Baseline cytotoxicity of untreated PBMCs was 17% and all compounds presented in Table 7 induced cytotoxicity below 25%.

[10] = PathHunter agonist mode, read-out: CB2 Activity (β-Arrestin)
[11] = OOR = out of standard curve range

Row | Compound | Immune modulation, cell surface and tissue remodeling biomarkers [1] | EC50 (CB1 receptor [2]) | EC50 (CB1 receptor [3]) | EC50 (CB2 receptor [4]) | CB2 fold selectivity (CB2 receptor [4]) | EC50 (CB2 receptor [5]; [10]) | Ki (CB1 receptor [8]) | Ki (CB2 receptor [9]) | Fold Selectivity (CB1/CB2) (CB2 receptor [9]) | EC50 (CB2 receptor [5]) | further results
1 | CCCCCCC(C)(C)c1cc(O)c2c(c1)OC(C)(C)c1ccc(C(=O)O)cc1-2 [Compound 31, 1-hydroxy-6,6-dimethyl-3-(2-methyloctan-2-yl)-6H-benzo[c]chromene-9-carboxylic acid] | Reduced Eotaxin-3 and IP-10; increased MMP-1 | 636 nM | > 3000 nM | 68.4 nM | 9.3 | 109 nM | > 3000 nM | 2040 nM |  |  | EC50 (CB1 receptor [6]): > 100 nM; EC50 (CB2 receptor [7]): 53 nM; inhibition at 0.5 µM (CB1 receptor [8]; 0.5 μM compound, 2.0 nM [3H] SR141716A, 90 min 37° C.): 12%; inhibition at 0.05 µM (CB2 receptor [9]; 0.05 μM compound, 2.4 nM [3H] WIN-55,212-2, 90 min 37° C.): 20%
2 | CCCCCCC(C)(C)c1cc(O)c2c(c1)OC(C)(C)[C@@H]1CC=C(C(=O)NC3CCC3)C[C@@H]21 [Compound 44, (6aR,10aR)-N-cyclobutyl-1-hydroxy-6,6-dimethyl-3-(2-methyloctan-2-yl)-6a,7,10,10a-tetrahydro-6H-benzo[c]chromene-9-carboxamide] | Reduced MCP-1, P-selectin, and IL-1α |  |  |  |  | 1.6 nM | 33.5 nM | 2.4 nM | 14.0 |  | EC50 (CB1 receptor [3]; PathHunter agonist mode, read-out: CB1 Activity (β-Arrestin)): 11.1 nM
3 | CCCCCCC(C)(C)c1cc(O)c2c(c1)OC(C)(C)[C@@H]1CC=C(C(=O)NC(C)C)C[C@@H]21 [Compound 91, (6aR,10aR)-1-hydroxy-N-isopropyl-6,6-dimethyl-3-(2-methyloctan-2-yl)-6a,7,10,10a-tetrahydro-6H-benzo[c]chromene-9-carboxamide] | Reduced Eotaxin-3, P-selectin, CD69, and EGFR, IL-10 | 6.9 nM | 20.9 nM | 1.5 nM | 4.5 |  | 34.8 nM | 3.2 nM | 10.9 | 1.7 nM | IL17A (LPS-induced PBMCs): 1.2 fold change; IL-1β (LPS-induced PBMCs): −1.4 fold change; IL-4 (LPS-induced PBMCs): −1.6 fold change; IL-6 (LPS-induced PBMCs): −2.2 fold change; IL-8 (LPS-induced PBMCs): −1.3 fold change; IL-10 (LPS-induced PBMCs): −2.3 fold change; MCP-1 (LPS-induced PBMCs): −1.4 fold change; TNFα (LPS-induced PBMCs): −1.2 fold change; IL-12 (p70) (LPS-induced PBMCs; [11]): −1.7 fold change; L-31 (LPS-induced PBMCs; [11]): −2.1 fold change
4 | CCCCCCC(C)(C)c1cc(O)c2c(c1)OC(C)(C)[C@@H]1CC=C(C(=O)NC3CCCC3)C[C@@H]21 [Compound 92, (6aR,10aR)-N-cyclopentyl-1-hydroxy-6,6-dimethyl-3-(2-methyloctan-2-yl)-6a,7,10,10a-tetrahydro-6H-benzo[c]chromene-9-carboxamide] | Reduced P-selectin | 28.8 nM | 17.3 nM | 1.6 nM | 17.7 |  | 45.7 nM | 3.8 nM | 12.0 | 1.4 nM | 
5 | CCCCCCC(C)(C)c1cc(O)c2c(c1)OC(C)(C)[C@@H]1CC=C(C(=O)N3CCCCC3)C[C@@H]21 [Compound 93, ((6aR,10aR)-1-hydroxy-6,6-dimethyl-3-(2-methyloctan-2-yl)-6a,7,10,10a-tetrahydro-6H-benzo[c]chromen-9-yl)(piperidin-1-yl)methanone] | Reduced Eotaxin-3, P-selectin, CD69, and M-CSF; increased IL-6 |  | > 3000 nM |  |  | 3.1 nM | 243 nM | 31.9 nM | 7.6 |  | 
6 | CCCCCCC(C)(C)c1cc(O)c2c(c1)OC(C)(C)[C@@H]1CC=C(C(=O)NC(C)=N)C[C@@H]21 [Compound 94, (6aR,10aR)-1-hydroxy-N-(1-iminoethyl)-6,6-dimethyl-3-(2-methyloctan-2-yl)-6a,7,10,10a-tetrahydro-6H-benzo[c]chromene-9-carboxamide] | Reduced MCP-1 and CD69; increased IL-1α | 7.9 nM | 94.9 nM | 6.3 nM | 1.3 |  | 18.8 nM | 12.6 nM | 1.5 | 4.3 nM | 
7 | CCCCCCC(C)(C)c1cc(O)c2c(c1)OC(C)(C)[C@@H]1CC=C(C(=O)NC(C)(C)C(F)(F)F)C[C@@H]21 [Compound 100, (6aR,10aR)-1-hydroxy-6,6-dimethyl-3-(2-methyloctan-2-yl)-N-(1,1,1-trifluoro-2-methylpropan-2-yl)-6a,7,10,10a-tetrahydro-6H-benzo[c]chromene-9-carboxamide] | Reduced Eotaxin-3, P-selectin, and CD69, | 107 nM | 257 nM | 2.1 nM | 49.7 | 1.2 nM | 72.3 nM | 7.2 nM | 10.0 |  | Anti-proliferation ([1]; cell type in which anti-proliferative effect was seen): Dermal fibroblasts
